One may read the IC50 as the concentration that inhibits the measured activity by half. Broadly, the CC50 is the concentration that lowers cell viability or growth by half. Higher therefore signals better tolerance by the cells.

The results in this text go back to publication PMC6246607, “Novel AR-12 derivatives, P12-23 and P12-34, inhibit flavivirus replication by blocking host de novo pyrimidine biosynthesis” (Emerging Microbes & Infections, 2018).

In one series the test system is DENV-1. Kind of series: High-content image analysis of DENV-1 infection (NS3) in A549 cells. It is filed as cell-based, dengue virus. The protocol: (§1) Approximately 50% of confluent cells seeded in 96-well plates were infected with viruses in the presence of drugs or DMSO as a solvent control. At 24 h post-infection (hpi), cells were fixed with 4% paraformaldehyde at room temperature (RT) for 20 min, permeated with a 0.5% Triton X-100 buffer for 2 min, and blocked with 3% BSA for 30 min. Nuclei were stained with DAPI (Sigma) at RT for 20 min. Viral NS3 was stained with a mouse anti-NS3 monoclonal antibody (mAb)[47] followed by staining with an Alexa Fluor 488-conjugated goat anti-mouse IgG antibody (ThermoFisher) at RT for 1 h. Nine images from different fields per well were acquired and analyzed using an ImageXpress Micro XLS Widefield High-Content Analysis System (Molecular Devices, Sunnyvale, USA). To quantify viral infection, the fluorescence intensities of viral NS3 or eGFP from the reporter virus were measured using MetaXpress® (Molecular Devices, Sunnyvale, USA) and were calculated with a mock control (infection as 0%) and a DMSO solvent control (infection as 100%).

The subject of a further series is ZIKV. Kind of series: High-content image analysis of ZIKV infection (NS3) in A549 cells. It is filed as cell-based, Zika virus. The protocol:
as §1

In the next series the test system is JEV-eGFP. Kind of series: microbe, parasite or virus in culture. It is filed as cell-based, Japanese encephalitis virus. As for the experimental part: as §1
The subject of series [1] is DENV-2 (mouse-adaptive NGC strain). As to the kind of experiment: DENV challenge of Stat1-/- mice. Type of series: in vivo. As for the experimental part:
Animal studies followed the guidelines of the Academia Sinica Institutional Animal Care and Use Committee. Five-week-old Stat1^−/− mice were subcutaneously challenged with 1 × 10^5 plaque-forming units (PFU) of DENV-2 (mouse-adaptive NGC strain)[29]. P12-34 (2.5 mg/kg per day in 500 µl PBS containing 10% DMSO) or vehicle control was intraperitoneally injected into DENV-2-infected mice for the first 6 days. At 1, 3, 5 and 7 days post-inoculation (dpi), the viral loads in sera were determined by RT-qPCR as previously described.

The next series has as its system wild-type DENV (DENV1-4). As to the kind of experiment: High-content image analysis, all four serotypes of wild-type DENV in A549 cells. It is filed as cell-based. Particulars: Dengue virus, DENV1, A549, read-out: IC50 range over the four serotypes. The protocol:
as §1

The test system of a further series is A549 cells. Kind of series: LDH release cytotoxicity assay. It is filed as cell-based, human. As to conditions: 24 h. As for the experimental part: (§2) Cells were treated with compounds at the indicated concentrations for 24 h. The release of lactate dehydrogenase (LDH) was measured using a Cytotoxicity Detection Kit (Roche, Basel, Switzerland) after removing cell debris. Cells treated with 1% Triton X-100 were used to determine the maximal LDH release.
On the technique in general: Release of lactate dehydrogenase indicates damage to the cell membrane.

A short description of series [2]: LDH release cytotoxicity assay. It is filed as cell-based, human. As to conditions: human, A549 cells. The protocol: as §2
The next series addresses T1, cytochrome bc1 complex (Homo sapiens, UniProt P00156+P22695+P31930).
T1 construct: endogenous in cells; host or cells: A549 cell lysate
As to the kind of experiment: BP12-34 pull-down, cytochrome bc1 complex. It is filed as binding. As to conditions: BP12-34 0.25 or 0.5 µM pull-down, A549 cell lysates. As for the experimental part:
Supplementary figure 4. P12-34 interacts with cytochrome bc1 complex. Cell lysates of A549 were treated with 0.25 μM (+) or 0.5 μM (++) BP12-34 at 4 ℃ for 1 h, then incubated with streptavidin (SA) beads at 4 ℃ for 30 min. Non-specific binding was removed by washing with PBS. After precipitation, P12-34-associated proteins were analyzed by western blot with the indicated antibodies against DHODH and cytochrome bc1 complex.

In another series the test system is DENV-2. Kind of series: Viral RNA replication assay (RT-qPCR). Type of series: cell-based, dengue virus. As to conditions: 1 µM added at 1 hpi versus 2′CMA 20 µM, A549 cells, DENV-2 MOI 5. As for the experimental part: Viral infection (MOI 5) and drug treatment were performed as described for the virus translation assay. Cells were harvested for real-time RT-PCR analysis after removing the cell-free viruses at 1, 2, 3, 6, 9, 12, 18, and 27 hpi. Viral RNA was quantified and normalized with actin RNA as described for the virus binding assay.
On the technique in general: In qPCR the cycle at which signal appears reflects the starting amount.

Where [3] appears, read: P12-34 1 µM, uridine 50 µg/ml, A549 cells.

With `N[C@@H](Cc1ccccc1)C(=O)Nc1ccc(-n2cc(C(F)(F)F)cc2-c2ccc3c(ccc4ccccc43)c2)cc1` [P12-34], the “SI (CC50/IC50)” value in the series with DENV-1 (DENV-1, A549 cells) is 206.3 ± 3.5; in the series on ZIKV (ZIKV, A549 cells) it was 171.4 ± 16.1; with JEV-eGFP (JEV-eGFP, A549 cells), 360.3 ± 3.1. The half-maximal inhibitory concentration (IC50) with DENV-1 (Dengue virus, DENV1, A549, 24 h) is 98 ± 1.7 nM; in the series on ZIKV (Zika virus, ZIKV, MOI 0.5, A549 cells, 24 h), 119 ± 11.7 nM; in the series on JEV-eGFP (Japanese encephalitis virus, A549, 24 h), 56.1 ± 0.5 nM; in the series with wild-type DENV (DENV1-4) it was 62 to 98 nM. The “suppression of ZIKV replication with uridine supplement” value in the series with ZIKV (setting [3]) is “this effect of uridine was also noted”. Further, the “relative potency versus AR-12 (fold)” value was ~ 10 fold in the series with ZIKV (ZIKV, A549 cells) and ~ 10 fold in the series with JEV-eGFP (JEV, A549 cells). In addition, the “suppression of JEV replication with uridine supplement” value with JEV-eGFP (setting [3]) is on record as “this effect of uridine was also noted”. Also, the “mice alive at 39 dpi” value in series [1] (Stat1-/- mice, subcutaneous DENV-2 challenge, 2.5 mg/kg per day i.p. for first 6 days, n = 5) is given as 60%. In addition, the “viral genome copy numbers in sera” value in series [1] (Stat1-/- mice, subcutaneous DENV-2 challenge, 2.5 mg/kg per day i.p., especially at 3 dpi) is recorded as “significantly reduced”. Further, the “protection against DENV challenge injected intraperitoneally” value in [1] (virus injected intraperitoneally, data not shown) was “did not protect mice”. Besides, it took 20300 ± 200 nM to reach half-maximal cytotoxicity in the series on A549 cells (A549 cells) (CC50). Besides, the noncytotoxic concentrations in the series on A549 cells (human A549 cells) was no more than 12.5 µM. This molecule showed a CC50 at 24 h in series [2] of roughly 20000 nM. The “binding to cytochrome bc1 complex” value at cytochrome bc1 complex is listed as “bind cytochrome bc1 complex in a dose-dependent manner”. For the same molecule, the “suppression of intracellular viral RNA replication” value with DENV-2 is “more potent than 2′CMA”.
